Data on two compounds can be found in patent US11014915B2, “Selective estrogen receptor degrader” (SUN PHARMA ADVANCED RESEARCH COMPANY LIMITED, priority 2019, dated 2021).

The structures appear in SMILES notation.

By AUC(0-t) is commonly meant the area under the concentration-time curve up to a stated or last time point. A lower AUC(0-t) goes with less exposure. As a reminder, the Cmax is the peak of the concentration-time curve. Broadly, the Tmax is the time at which the peak concentration occurs. The half-life is the time in which the quantity being followed falls by half. A low value points to rapid decline.

Data set [1] addresses T1, ER-α in MCF-7 cells harboring mutant ER (WT/Y537S) (Homo sapiens, UniProt P03372, Y537S).
T1 construct: MCF-7 cells harboring mutant ER (WT/D538G and WT/Y537S); endogenous in cells; host or cells: MCF-7 Y537S (WT/Y537S)
T1 sequence (P03372 1-595 Y537S): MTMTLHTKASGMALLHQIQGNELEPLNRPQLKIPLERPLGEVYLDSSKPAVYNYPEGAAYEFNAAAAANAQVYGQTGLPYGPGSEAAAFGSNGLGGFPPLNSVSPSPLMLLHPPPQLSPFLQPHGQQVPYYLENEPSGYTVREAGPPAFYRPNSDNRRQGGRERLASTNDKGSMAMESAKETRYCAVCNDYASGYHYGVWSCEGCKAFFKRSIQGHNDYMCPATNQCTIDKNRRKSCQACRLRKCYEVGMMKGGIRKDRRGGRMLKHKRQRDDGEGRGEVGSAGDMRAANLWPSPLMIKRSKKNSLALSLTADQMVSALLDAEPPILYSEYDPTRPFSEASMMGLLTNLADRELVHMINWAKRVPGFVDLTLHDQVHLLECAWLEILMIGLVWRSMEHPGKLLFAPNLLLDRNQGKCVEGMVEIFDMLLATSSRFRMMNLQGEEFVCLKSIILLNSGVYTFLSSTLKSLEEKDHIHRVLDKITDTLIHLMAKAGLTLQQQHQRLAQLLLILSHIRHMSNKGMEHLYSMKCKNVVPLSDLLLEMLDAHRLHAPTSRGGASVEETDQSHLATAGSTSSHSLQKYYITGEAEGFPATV
The data set is described as follows: ER-α degradation (SERD) assay, MCF-7 Y537S. It counts as cell-based. The settings on record: for DC50: MCF-7 Y537S, 4 days, read-out: ER-α degradation assay Y537S IC50. The protocol:
Selective Estrogen Receptor Degradation (SERD) Assay:
The SERD activity for the test compounds was evaluated in MCF-7 cells harboring ER wild type, and MCF-7 cells harboring mutant ER (WT/D538G and WT/Y537S). Briefly, cells were plated in phenol red free RPMI1640 medium supplemented with 5% charcoal stripped fetal bovine serum. The seeding density was 40000 cells/well for MCF-7 WT and MCF-7 D538G and 50000 cells/well MCF-7 Y537S in a 48-well plate. Following overnight incubation, the cells were treated with varying concentrations of test compounds (final concentration: 1000 nM to 0.01 nM, 0.1% DMSO) for 4 days. The cells were lysed using PBS supplemented with 1 mM EDTA, 0.5% Triton X-100, 5 mM NaF, 6 M urea, and 1× Protease inhibitor cocktail. The lysate was analyzed for ER alpha protein using western blot. For the western blot, the cell lysate (12.5-40 μg total protein) was resolved on a 10% SDS PAGE and transferred onto a PVDF membrane. The blots were blocked using 5% skim milk powder in 0.1% PBS-T for 1 hour at room temperature, followed by co-incubation with rabbit anti-human β-actin antibody and rabbit anti-human ERα antibody for 2 hours at room temperature. The blots were subsequently probed with anti-rabbit IgG-HRP conjugate as secondary antibody for 1 hour at room temperature. The blots were developed by using West Pico Super Signal Chemiluminescence substrate and the bands were processed for densitometry analysis using Image Lab software (BioRad version 6.0.0). ERα band intensity was normalized to that housekeeping protein for respective samples. The % ER remaining was calculated by normalizing against the vehicle control (as 100%).

Data set [2] is described as follows: Pharmacokinetic study in female SD rats, single oral dose. It counts as in vivo. The following applies: rat, 50 mg/kg p.o.; for AUC(0-t) / Cmax / Tmax / half-life / AUC(0-inf): female, SD, plasma, po; for AUC(0-inf): read-out: AUCinf_obs. An excerpt: In drug discovery it is very important to have good oral bioavailability and pharmacokinetic (PK) profile of the compound in order to become a good drug candidate for oral administration. Many compounds having potent in vitro efficacy fail to show therapeutic efficacy in human body. The lack of therapeutic efficacy of these compounds is mainly due to their inappropriate pharmacokinetic properties, such as low bioavailability, short half-life, rapid metabolism, or rapid clearance resulting in a short duration of action. Therefore a good drug candidate should have not only good potency, but also a good pharmacokinetic profile. The pharmacokinetic profile of the compounds of Formula Ia and Ib were determined as per the procedure provided below.
PK profiles were evaluated in female SD rats (n=2) following a single oral dose administration. Rats were fasted for 12-13 hours prior to dosing and feed was provided 2 hours after oral treatments. Dose formulations of compounds were prepared in Tween 80 (0.4% v/v of the total volume of suspension) in 0.5% carboxymethyl cellulose (CMC). Treatments were given at 50 mg/kg, p.o. To evaluate the plasma concentration, 0.2 mL blood was drawn from the rats through the retro-orbital plexus at 0.25, 1, 4, 8, 24, 48 and 72 hour time points post-treatment in Eppendorf tubes containing sodium heparin as an anticoagulant (100 IU/mL), and centrifuged immediately at 8500 rpm for 7 min at 4° C. Plasma was separated and stored at −70° C., until analysis. The analysis of samples was performed as per the method given below:
Working Calibration Standard and Quality Control Standards Preparation:
Working calibration standards were prepared having 0.10, 0.20, 2.00, 4.00, 8.00, 12.00, 16.00, and 20.00 μg/mL concentrations. Quality control standards were prepared at concentrations of […].
Preparation of Working Internal Standards (WIS):
Accurately weighed 5 mg of Carbamazepine was transferred into a 100 mL volumetric flask, dissolved and diluted up to the mark with diluent (0.1% formic acid in water:acetonitrile 30:70 v/v). A WIS of 5 μg/mL was prepared from the above solution.
5 μL of working standards and quality controls were spiked into 95 μL of blank plasma. 25 μl from the above spiked standards and quality controls were aliquoted into microcentrifuge tubes. 25 μL of study samples were also aliquoted into a micro centrifuge tube. 5 μL of WIS was added in zero standards to linearity and study samples except blank. The samples were further vortexed for 10-15 seconds. 150 μL of Milli Q water was added to all prepared samples and vortexed for 10-15 seconds. Samples were loaded on a preconditioned cartridge (preconditioning was done with 1 mL methanol followed by 1 mL Milli Q water). Cartridges were washed with 2×1 mL of Milli Q water. Elution was done with a 1 mL elution solution {acetonitrile: 0.1% formic acid solution (70:30)} in HPLC vials.
Chromatographic separation was achieved on Chiral pack ID (250*4.6 mm, 5μ) with a flow rate of 1.25 mL/min with splitter and injection volume of 20 μL. The sample cooler was maintained at 10° C. The column oven temperature was set to 30° C. The mobile phase consisted of:
Mobile phase A: 1.47 g of ammonium bicarbonate into 1 L of water, 1 ml DEA, pH 9.2±0.1
Mobile phase B: methanol,
wherein mobile phase A was mixed with mobile phase B in the ratio of 30:70 v/v, respectively. The retention time of the compound of Formula Ia, compound of Formula Ib and the internal standard were about 8.7, 7.6 and 4.2 min, respectively. The overall chromatographic run time was 16 minutes.
Detection was performed by tandem mass spectrometry (TSQ Quantum, Discovery MAX, Thermo Electron Corporation) and peak areas were integrated using LCquan software version 2.9 QF1. […]

As for `CC1=C(c2cc(F)cc(F)c2)[C@H](c2ccc(/C=C/CN3CC(CF)C3)cc2)Oc2cc(O)ccc21` [Formula Ia, (2S)-3-(3,5-difluorophenyl)-2-[4-[(E)-3-[3-(fluoromethyl)azetidin-1-yl]prop-1-enyl]phenyl]-4-methyl-2H-chromen-7-ol], in data set [1], the DC50 turned out to be 19.6 nM. In addition, in data set [2], the AUC(0-t) is 7580 ng·h/mL, the highest level (Cmax) was 343 ng/mL, the Tmax came to 4 h and the half-life was 26 h. For the same compound, in data set [2], the AUC(0-inf) turned out to be 9800 ng·h/mL, the “AUClast of Formula Ia relative to Formula Ib” value was “about 4.2 fold” and the “Cmax of Formula Ia relative to Formula Ib” value is “about 2.9 fold”.

For `CC1=C(c2cc(F)cc(F)c2)[C@@H](c2ccc(/C=C/CN3CC(CF)C3)cc2)Oc2cc(O)ccc21` [Formula Ib, (2R)-3-(3,5-difluorophenyl)-2-[4-[(E)-3-[3-(fluoromethyl)azetidin-1-yl]prop-1-enyl]phenyl]-4-methyl-2H-chromen-7-ol], in data set [1], the DC50 is > 1000 nM. In data set [1] (Y537S), the “ER-α degradation in mutated cell line (in words)” value is reported as “no ER-α degradation”. For the same compound, in data set [2], the area under the curve AUC(0-t) was 1800 ng·h/mL, the Cmax came to 119 ng/mL, the Tmax was determined as 4 h and the half-life is 10 h. In addition, in data set [2], the AUC(0-inf) is 2360 ng·h/mL.
